pIC50: −log10 of the molar value. Where two headings read alike, the source gives them in different places.
Columns and labels:
[1] = GLUT-2 uptake experiment (phloretin blockade, MTS); assay type: cell-based; conditions: African green monkey, VERO cells, No addition of Ph, read-out: VERO Cell Viability %
Description: We observed that Ph selectively mitigated the cytotoxicity of STR-V-53 against the Hep-G2 cell line with no apparent effect on the cytotoxicity of SAHA (Figure 2a). […] This matches our expectation because Hep-G2 cells overexpress GLUT-2 while VERO has limited expression of GLUT-2.[26] […]
Hep-G2 or VERO cells were seeded (2500 to 4,000 counts/well) into 96-well plates, in which each well contains 100 µL media. The cells were cultured overnight in the respective media described in the cell culture section above. On day 2, the cells were treated with 25 µM Phloretin for 24 h. On day 3, 200x stock solutions of STR-V-53 and SAHA were used to prepare 2x treatment solution by adding 1% stock solution in the media. Then, without removal of the media in 96-well plates, the same volumes of drug as the media were added directly to the wells with gentle pipetting to reach 1x drug solution with 25 µM Ph. After another 72 h, the media were removed, and new media (100 µL) added to the wells. MTS solution (20 µL) was added to each well. After 2.5-4 h incubation, the plates were read using a multiplate reader at 490 nm. The data were processed using GraphPad Prism 8. […]

[2] = test system: VERO cells; assay: Immunoblotting of cleaved Caspase 3; assay type: cell-based; conditions: same concentrations as in Hep-G2
Description: (§1) Figure 3 Effects of STR-V-53 on intracellular markers of HDAC inhibition, antitumor immune response, and apoptosis. (a) STR-V-53 upregulates the levels of acetylated H4 and tubulin in Hep-G2 cells. Hep-G2 cells were treated with DMSO or 0.1% DMSO solution of SAHA (1.25 μM) and STR-V-53 (1.25 μM, 2.5 μM). Cells were treated for 5 h before lysis. Data are from two independent experiments. (b) STR-V-53 upregulates PD-L1 and downregulates PD-1 expressions in Hep-G2 cells. Cells were treated with DMSO or 0.1% DMSO solution of SAHA (5 μM and 10 μM) and STR-V-53 (10 and 20 μM) for 24 h. (c) STR-V-53 and SAHA caused upregulation of the levels of CD54 in the Hep-G2 cell line. Cells were treated with DMSO or 0.1% DMSO solution of SAHA (5 and 10 μM) and STR-V-53 (5, 10, and 20 μM) for 24 h. […] Cells were treated with DMSO or 0.1% DMSO solution of SAHA (5 μM) and STR-V-53 (10 and 20 μM).

[3] = biological target: T1, HDAC8 (Homo sapiens, UniProt Q9BY41); assay: HDAC isoform inhibition (BPS Bioscience)
T1 sequence (Q9BY41 1-377): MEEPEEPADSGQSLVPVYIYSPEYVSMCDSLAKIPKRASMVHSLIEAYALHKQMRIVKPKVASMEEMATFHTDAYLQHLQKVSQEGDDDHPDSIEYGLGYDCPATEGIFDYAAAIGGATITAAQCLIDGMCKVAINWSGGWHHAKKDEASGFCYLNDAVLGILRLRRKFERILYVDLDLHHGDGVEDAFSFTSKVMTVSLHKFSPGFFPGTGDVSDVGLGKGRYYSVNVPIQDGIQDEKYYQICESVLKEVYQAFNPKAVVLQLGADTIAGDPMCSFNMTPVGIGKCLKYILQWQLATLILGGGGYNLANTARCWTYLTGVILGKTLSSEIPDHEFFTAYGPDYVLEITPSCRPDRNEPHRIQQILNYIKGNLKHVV

[4] = test system: Hep-G2 cells; assay: Immunoblotting of acetylated histone H4 and α-tubulin; assay type: cell-based, human; conditions: for Acetylation status of histone H4 and α-tubulin: at 1/4 IC50 and 1/2 IC50
Text: To determine the contributions of HDAC inhibition to the antiproliferative activities of the glycosylated HDACi compounds, immunoblotting was used to investigate the acetylation status of histone H4 and α-tubulin, biomarkers for HDAC class I and class IIb intracellular inhibition, respectively,[27] in Hep-G2 cells in response to exposure to representative compounds STR-V-53, STR-V-114, and STR-I-195. We used SAHA as a positive control for HDAC inhibition and GAPDH level as a protein loading control.
as §1
10-017-CV), supplemented with 10% fetal bovine serum (FBS) (Corning, 35-010-CV). Hep-G2 cells were cultured in phenol red-free Minimum Essential Medium (MEM) (Corning, 17-305-CV), supplemented with 10% fetal bovine serum (FBS). SK-Hep-1 in ATCC-formulated EMEM (ATCC® 30–2003™); Huh-7 in DMEM (containing 4 mM L-glutamine and 1 g/L glucose) with […]
Kupffer Cell Media (Sekisui XenoTech, LLC, Cat. #K8700). Cells were seeded into a 96-well plate (2000 counts/100uL) for 24 h prior to treatment and then treated with various drug concentrations for 72 h. All drugs were dissolved in media with DMSO concentration maintained at 1%. The effect of compounds on cell viability was measured using the MTS assay (CellTiter 96 Aqueous One Solution and CellTiter 96 Non-Radioactive Cell Proliferation Assays, Promega, Madison, WI) as described by the manufacturer. IC50s were determined using Prism GraphPad 8.
Western blot protocol was described in our previous works 24,25. In brief, Hep-G2 cells were seeded into a 6-well plate at 1*106/well in MEM for 24-48 h prior to treatment. Various concentrations of SAHA, STR-V-53, STR-V-114, and STR-I-195 solutions in DMSO were added to the cell culture such that the final DMSO level was 0.1%. Cells were treated for 24 h, washed with cold PBS, and lysed with RIPA buffer (120 µL) (VWR, VWRVN653 -100ML) containing phosphatase inhibitor (Fisher Thermo, A32957) and protease inhib itor (Fisher Thermo, A32955). The cell lysates were scraped, collected, and vortexed for 15 s, followed by sonication for 60 s. The lysate was centrifuged at 14000x rpm for 10 min, and the supernatants were collected. The total protein concentration was determined using a BCA protein assay kit (BioVision, K813-2500). Based on the results from the […], the lysates were diluted to make equal protein concentration, and 40 µg of each lysate was loaded to each wel l of the TGX […]
MIDI 4-20% gel (Biorad, cat. 5671093) and ran at 150 V for 70 min. […] After washing with TBS-T 3x5 mins, bands were quantified using the Odyssey CLx Image system. […]

O=C(CCCCCCC(=O)Nc1ccccc1)NO [SAHA, vorinostat, reference compound]
viability at 72 h, 6.5 µM ([1]; 6.5 μM): 97.7% | viability at 72 h, 12.5 µM ([1]; 12.5 μM): 17.1% | Caspase 3 cleavage [2]: induced cleavage of Caspase 3

O=C(CCCCCCn1cc(-c2ccc(O[C@@H]3O[C@H](CO)[C@@H](O)[C@H](O)[C@H]3O)cc2)nn1)NO [STR-I-195]
Caspase 3 cleavage [2]: did not induce cleavage of Caspase 3 | pIC50 ([3]; read-out: HDAC8 IC50, Table S1): 6.33 | Acetylation of H4 and α-Tubulin ([4]; 0.5 μM): did not show significant acetylation | Acetylation of H4 ([4]; 1.25 μM and 2.5 μM): mild acetylation | Acetylation of α-Tubulin ([4]; 1.25 μM and 2.5 μM): significant acetylation

O=C(CCCCCCn1cc(-c2ccc(O[C@H]3O[C@H](CO)[C@@H](O)[C@H](O)[C@H]3O)cc2)nn1)NO [STR-V-53]
viability at 72 h, 75 µM ([1]; 75μM): 98.4% | viability at 72 h, 100 µM ([1]; 100μM): 77.8% | Caspase 3 cleavage [2]: did not induce cleavage of Caspase 3 | pIC50 [3]: 6.07 | Acetylation status of histone H4 and α-tubulin [4]: induced accumulation of acetylated H4 and acetylated tubulin

O=C(CCCCCCn1cc(-c2ccc3cc(O[C@H]4O[C@H](CO)[C@@H](O)[C@H](O)[C@H]4O)ccc3c2)nn1)NO [STR-V-114]
pIC50 ([3]; read-out: HDAC8 IC50, Table S1): 5.67 | Acetylation status of histone H4 and α-tubulin [4]: induced accumulation of acetylated H4 and acetylated tubulin
